Results: patent publication US20250122193A1, “NOVEL PYRIDOCARBAZOLIUM COMPOUNDS AND MEDICAL USES THEREOF” (MyCural Therapeutics, priority 2021, published 2025)

Columns and labels:
[1] = tested on: primary patient derived glioblastoma cells; assay: primary glioblastoma cultures, resazurin assay; conditions: 42 patients, 2D cultures, 72 hours
ODC1 expression = assay: MYC target gene ODC1 expression by qPCR; format: cell-based; conditions: 5 μM
Procedure: FIG. 1: MYCMI-7 (Compound Example 1) inhibits the MYC:MAX interaction in cells, bind MYC in vitro, and blocks MYC function. A) Molecular structure of MYCMI-7. B-E) split Gaussia luciferase (GLuc) assay. MYC or MYCN and MAX Gluc constructs were co-transfected into HeLa cells together with a firefly luciferase vector. 24 hours post transfection cells were treated with compounds, and after another 17-24 hours cells were harvested and both GLuc and firefly luciferase activities were measured. The mean of three different experiments is shown. Treatment with: B) 5 μM of MYCMI-7, 64 μM 10058-F4 or 5 μM JQ1, respectively, C) 6.5 μM MYCMI-7 on cells expressing MYC:MAX GLuc vs. GCN4:GCN4 GLuc, D) 5 μM MYCMI-7 and 5 μM ellipticine. E) 5 μM MYCMI-7 for various time points. F) in situ proximity ligation assay (isPLA). […] MYC:GAL4 was used as negative control in the isPLA assay. G) Quantification of isPLA dots. (H) Co-immunoprecipitation (co-IP) of endogenous MYC and MAX proteins from MCF7 cells after treatment with 5 μM MYCMI-7 at various times. IP=immunoprecipitation; W=western blot. […] J) MYC target gene ODC1 expression after treatment with 5 μM MYCMI-7, quantified by qPCR. […] L) Recombinant MYC bHLHZip protein domain immobilized onto a CM5 chip was subjected to various concentrations of MYCMI-7 and the complex of MYCbHLHZip-MYCMI-7 was measured as response units by SPR. […]

MYC protein [2] = molecular target: MYC protein (Homo sapiens, UniProt P01106); assay: steady state MYC protein level by western blot; format: cell-based; conditions: for MYC protein level: 17 hours, 5 μM
Sequence of MYC protein (Homo sapiens, UniProt P01106) (P01106 16-454): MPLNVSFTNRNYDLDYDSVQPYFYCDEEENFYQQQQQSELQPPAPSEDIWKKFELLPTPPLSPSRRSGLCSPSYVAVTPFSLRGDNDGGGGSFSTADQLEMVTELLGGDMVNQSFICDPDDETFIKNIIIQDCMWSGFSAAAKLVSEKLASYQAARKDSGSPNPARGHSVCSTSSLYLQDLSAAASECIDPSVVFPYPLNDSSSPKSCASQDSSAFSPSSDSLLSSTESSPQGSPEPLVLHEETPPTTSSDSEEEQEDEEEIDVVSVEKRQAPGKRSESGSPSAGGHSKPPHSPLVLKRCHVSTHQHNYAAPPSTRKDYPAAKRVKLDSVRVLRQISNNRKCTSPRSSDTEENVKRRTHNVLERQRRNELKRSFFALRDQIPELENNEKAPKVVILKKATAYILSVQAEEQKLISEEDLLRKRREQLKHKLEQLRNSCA
Procedure: (§1) FIG. 2: MYCMI-7 downregulates MYC and MYCN protein expresión. A) Steady state levels of MYC protein in MCF7 cells after 17 hours exposure to indicated concentrations MYCMI-7 or ellipticine B) MYC mRNA expression in MCF7 cells after treatment with MYCMI-7 for various time points. C) Steady state levels of MYC protein in different HCT116 cell lines (WT, FBW7−/− or p53−/−) after 17 hours exposure to 5 μM MYCMI-7. Endogenous MYC was immunoprecipitated and detected by western blot analysis. D) Cycloheximide (CHX) chase in HCT116 cells. Cells were subjected to 5 μM MYCMI-7 30 min prior cycloheximide addition. Cells were harvested after the indicated time points, MYC was immunoprecipitated using N262 antibody and the MYC levels analyzed using western blot (C33 antibody). E) CHX chase after MYCMI-7 treatment performed as in (D) using Fbxw7-deficient HCT116 cells. F) Stable expression of wt, T58A or S62A MYC in HO15.19 MYC−/− cells. The cells were treated with 5 μM MYCMI-7 overnight, and MYC expression was analyzed by western blot. G) Cartoon showing a linear structural representation of wt MYC and indicated mutants. H-J) Expression of MYC mutants after MYCMI-7 treatment. COS-7 cells were transfected with CMV-driven vectors containing HA-tagged wt MYC or mutants for 24 hrs and treated with 5 μM MYCMI-7 for 17 hrs. The DN (H) and DC (I) MYC mutants encodes the C-terminal and N-terminal halves of the MYC protein, respectively. DBr (J) lacks the DNA-binding basic region of the protein. A-J). Representative western blots out of at least three experiments are shown.
(§2) For western blot equal amounts of proteins ([…]) were separated on a 4-12% SDS-PAGE gel. Proteins were transferred to Immobilion-P membrane (Millipore) and detected by immunostaining and chemoluminescence (Immobilion western HRP substrate; Millipore). For immunoprecipitations 500-1000 μg of protein was used. […] Briefly, cells were crosslinked with 1% formaldehyde on ice for 6 minutes. Nuclear chromatin was sonicated on ice to fragments from 0.3 kb to 0.5 kb. Nuclear chromatin equivalent to 2.5×10^7 cells was immunoprecipitated with 2 μg antibody.

MYC protein [3] = assay: steady state MYC protein level by western blot; format: cell-based; conditions: reconstituted HO15.19 MYC knockout Rat1 cells, 5 μM overnight
Procedure: as §1, §2

[4] = tested on: MYC target genes CR2, RGS16, CAMKV and nucleolin; assay: MYC transactivation of target genes in U2OS-MYCER cells, RT-qPCR; format: cell-based; conditions: 5 μM, 24 hours
[5] = tested on: association of MYC with the ODC1 gene promoter; assay: chromatin immunoprecipitation (ChIP) of MYC at ODC1 promoter; format: cell-based; conditions: 5 μM
Procedure: FIG. 1: MYCMI-7 (Compound Example 1) inhibits the MYC:MAX interaction in cells, bind MYC in vitro, and blocks MYC function. A) Molecular structure of MYCMI-7. B-E) split Gaussia luciferase (GLuc) assay. MYC or MYCN and MAX Gluc constructs were co-transfected into HeLa cells together with a firefly luciferase vector. 24 hours post transfection cells were treated with compounds, and after another 17-24 hours cells were harvested and both GLuc and firefly luciferase activities were measured. The mean of three different experiments is shown. Treatment with: B) 5 μM of MYCMI-7, 64 μM 10058-F4 or 5 μM JQ1, respectively, C) 6.5 μM MYCMI-7 on cells expressing MYC:MAX GLuc vs. GCN4:GCN4 GLuc, D) 5 μM MYCMI-7 and 5 μM ellipticine. E) 5 μM MYCMI-7 for various time points. F) in situ proximity ligation assay (isPLA). […] MYC:GAL4 was used as negative control in the isPLA assay. G) Quantification of isPLA dots. (H) Co-immunoprecipitation (co-IP) of endogenous MYC and MAX proteins from MCF7 cells after treatment with 5 μM MYCMI-7 at various times. IP=immunoprecipitation; W=western blot. I) Chromatin immunoprecipitation (ChIP) of MYC at the ODC1 target gene promoter after treatment of cells with 5 μM MYCMI-7 for 6 hours. J) MYC target gene ODC1 expression after treatment with 5 μM MYCMI-7, quantified by qPCR. K) ChIP of MYC at the ODC promoter in MCF7 cells after 5 μM MYCMI-7 treatment for indicated time points. L) Recombinant MYC bHLHZip protein domain immobilized onto a CM5 chip was subjected to various concentrations of MYCMI-7 and the complex of MYCbHLHZip-MYCMI-7 was measured as response units by SPR. The sensogram was produced by subtracting the blank response.
as §2, with “Nuclear chromatin was sonicated on ice to fragments from 0.3 kb to 0.5 kb. Nuclear chromatin equivalent to 2.5×10^7 cells was immunoprecipitated with 2 μg antibody.” left out

[6] = tested on: Human neuroblastoma cells; assay: growth/viability of neuroblastoma cells with or without MYCN-amplification; conditions: 6.25 μM, 24 hrs
[7] = tested on: Rat1 fibroblasts TGR1 (wt MYC) and HOMyc3 (reconstituted MYC); assay: WST-1 growth/viability assay, MYC-expressing Rat1 fibroblasts; format: cell-based, rat; conditions: Rattus norvegicus, TGR1, 48 h, read-out: GI50 (average growth inhibition of 50%)
[8] = tested on: MCF-7 breast carcinoma cells; assay: RNA-seq gene set enrichment analysis; conditions: 5 μM, 24 hrs
[9] = intracerebroventricular injection, toxicity; conditions: highest concentration (10 μM)
[10] = tested on: SKN-DZ neuroblastoma cells with MYCN-amplification; assay: 3D colony formation in agarose, SK-N-DZ; format: cell-based; conditions: 3D cultures, 2 weeks
[11] = tested on: wt and p53-deficient HCT116 cells; assay: WST1 assay in wt and p53-deficient HCT116 cells; format: cell-based; conditions: titration
[12] = tested on: Purified AML cells from spleens of moribund mice; assay: purified MYC/BCL-XL AML cells in culture; conditions: Mus musculus

CCN(CC)CC[n+]1ccc2c(C)c3[nH]c4ccccc4c3c(C)c2c1 [MYCMI-7, 2-(5,11-Dimethyl-6H-25-pyrido[4,3-b]carbazol-2-yl)-N,N-diethylethanamine bromide]
GI50 [1]: submicromolar range | ODC1 expression (ODC1 expression): reduced ODC1 expression | phosphorylation of MYC at Thr-58 or Ser-62 (MYC protein [2]): did not increase | MYC protein level (MYC protein [2]; FBXW7−/− HCT116 cells): unaffected | steady state level of MYC protein (MYC protein [2]; MCF7 cells, 17 hrs, 5 μM MYCMI-7): decreased drastically | MYC protein level (MYC protein [2]; wt and p53 null HCT116 cells): strongly reduced | levels of wt, T58A and S62A MYC (MYC protein [3]): reduced the levels of both wt and the MYC mutants | 4-OHT-induced expression of CR2, RGS16, CAMKV and nucleolin [4]: significantly reduced | time after which reduction of MYC association with ODC1 promoter starts [5]: 2 h | time from which MYC association with ODC1 promoter reaches a minimal level [5]: 4 h | association of MYC with the ODC1 gene promoter (ChIP) ([5]; breast cancer cells): reduced | effect in MYCN-amplified versus non-amplified neuroblastoma cells [6]: significantly stronger | tumor growth and viability in all neuroblastoma cell lines [6]: reduced tumor growth and viability | GI50 [7]: ~2000 nM | GSEA of differentially expressed genes: MYC and E2F target genes [8]: downregulation | toxicity after intracerebroventricular injection [9]: no signs of toxicity | GI50 [10]: nanomolar range | growth response or MYC expression, wt versus p53-deficient cells [11]: no difference | GI50 [12]: < 1000 nM
